Experimental data as given in PMC5495782, “Designed α-sheet peptides suppress amyloid formation in Staphylococcus aureus biofilms” (NPJ Biofilms and Microbiomes, 2017).
Entries after “also recorded” stand apart in the source; their conditions may differ. Where a SMILES comes first, the peptide text is derived from it. [ ]: non-standard residue; d: D form.

Legend:
synthetic PSMα1 [1] = assay: PSMα1 fibrillization assay with added inhibitors (ThT), water; type: biochemical, Staphylococcus aureus; conditions: 30 μM PSMα1, inhibitor at 4:1 molar ratio, 0.34% v/v DMSO in ddH2O, pH 5, 37 °C, ThT 22 μM; SEM of 3–6 replicates; vs peptide-free control
Description: (§1) Two different solvent conditions were used (0.34% DMSO in water, blue bars; LB medium + 0.34% DMSO, red bars) and aggregation was monitored by ThT fluorescence. Inhibition values for each peptide are reported as a percentage of the peptide-free control samples (0% inhibition). […] Fluorescence values in NaCl solution were quite high, so its curve is shown as an inset.

[2] = CD spectroscopy of designed and control peptides; type: physicochemical; conditions: 100 µM (RC 30 µM), phosphate buffer (β and AP193: acetate buffer), room temperature
Procedure: AP407 is a variant of AP90 with a disulfide bond. […] An unstructured random coil peptide (RC) and a β-sheet hairpin (β) are used as structural controls.[25], [26]
CD spectra of RC, β, AP90, AP401, AP407, and AP193. Peptides were
dissolved to a concentration of 100 µM (except for RC, which was 30 µM) in phosphate
buffer (except for β and AP193, which were in acetate buffer) and spectra were
acquired at room temperature. […] MRE = mean residue ellipticity.

PSMα1 [3] = biological target: T1, PSMα1 (Staphylococcus aureus, UniProt A9JX05); type: binding; conditions: fresh (0 h), pre-incubated (48 h) and fibrillar (165 h) PSMα1; 2 h, 25 °C; GndHCl elution; NanoOrange fluorescence; six samples
T1 construct: synthetic PSMα1 (f[…], where f denotes formylation, Ontores Biotechnologies); purchased Ontores Biotechnologies; host or cells: chemical synthesis
Procedure: To further probe the interactions between PSMα1 and the designed α-sheet peptides, we immobilized AP90 on agarose beads and applied solutions of either (a) fresh (completely solubilized), (b) pre-incubated, (allowed to aggregate as in Fig. 6a for 48 h corresponding to α-sheet oligomer species) or (c) fibrillar PSMα1. The bead mixtures were contained within a micro-spin column, so the system was treated as a packed bed reactor and a series of phosphate buffered saline (PBS) washes was used to remove unbound material. The PSMα1 content of each wash was measured with a fluorescence-based assay. PSMα1 bound to immobilized AP90 was eluted with high guanidinium hydrochloride (GndHCl).
Meanwhile, PSMα1 samples were prepared as above (see “PSM fibrillization assay”) and incubated at 37 °C. […] FT and the washes (W1-W7) were analyzed with the NanoOrange® Protein Quantitation Kit (Thermo Fisher Scientific). […] This approach was necessary because elution of bound PSMα1 with GndHCl obscures protein quantification, and unfortunately, the inability to quantify the GndHCl bound fractions prevents confirmation of the mass balance. […]
were alternated with PBS washes (W8-W13). All eluents were then analyzed with the
NanoOrange® Protein Quantitation Kit and fluorescence was used as an indicator of
PSMα1 content in each eluent. Fluorescence measurements were normalized by the […]

[4] = tested on: S. aureus SH1000 WT biofilm PSM amyloid fibrils; assay: TEM of biofilms for extracellular fibril deposits; type: cell-based, Staphylococcus aureus SH1000 WT; conditions: 80 μM AP90, biofilms grown 24 h
Procedure: To further investigate the ability of designed peptides to inhibit PSM amyloid formation, fluorescent (mCherry) S. aureus MN8 biofilms were grown in culture plates with glass bottom wells with or without α-sheet inhibitors. After 24 h at 37 °C the biofilms were gently rinsed with pipetted saline to remove unattached biomass and the remaining attached cells were fixed and imaged. A robust biofilm formed on the glass at the bottom of each well in LB medium alone (Fig. 2a); in contrast, there was significant disruption of the biofilm in the presence of the α-sheet compounds. […] Quantification of the images is presented in Supplementary Fig. S2. […] Addition of anti-α-sheet peptides triggered a significant reduction in PSM amyloid formation as measured by ThT fluorescence, which presumably weakened the S. aureus biofilms and their attachments by reducing the PSM amyloid fibril content of the EM. […]
Fig. 2 S. aureus biofilm structures become less robust when grown in the presence of designed peptide inhibitors. a S. aureus MN8 + mCherry biofilms were grown on glass substrates for 24 h and then cells were washed and fixed. […] For quantification of the images see Supplementary Fig. S2. b In S. aureus SH1000 WT biofilms grown in regular LB medium, PSM amyloid fibrils were visible as deposits in spaces between cells (left).
Images were analyzed using Gwyddion software (Czech Metrology Institute).

[5] = tested on: S. aureus SH1000 WT biofilm amyloid; assay: ThT fluorescence assay of amyloid in SH1000 WT biofilms; type: cell-based, Staphylococcus aureus SH1000 WT; conditions: 80 μM peptide, 24 h, 37 °C
Procedure: (§2) Fig. 1 Screening of designed peptides for inhibition of amyloid formation in S. aureus biofilms. a Schematic of protocol for testing designed α-sheet peptides in S. aureus biofilm cultures with an illustration of the main-chain structure of the AP90 α-sheet design. b A panel of designed α-sheet peptides (AP90, AP401, and AP407), as well as random coil (RC) and β-hairpin controls (β), was tested against two S. aureus strains, MN8 (hashed bars) and SH1000 WT (white bars). […] Error bars in b and c represent the standard error of the mean for experiments performed in triplicate […]
(§3) ThT, an established fluorescent label for amyloid fibrils,[43] was then added to each well at a concentration of 22 μM and biofilms were incubated statically for 4 h at room temperature. […] Plates were shaken at high speed for 1 min on a plate shaker to detach any remaining biofilm material and homogenize the samples, which were then transferred to a 96-well black-walled plate (Corning, TC-treated polystyrene) and ThT fluorescence was measured using an excitation wavelength of 438 nm and emission at 495 nm on a Perkin–Elmer Enspire plate reader (hereafter referred to as the plate reader). Fluorescence measurements were corrected by subtracting the background intensity of identical samples without ThT (in the case of the biofilms) or PSMα1 (for the in vitro measurements). […]

PSMα1 [6] = biological target: T1, PSMα1; assay: Biolayer interferometry, AP90 on sensor tip, PSMα1 in solution; type: binding; conditions: PSMα1 α-sheet-rich (~48 h) vs α-helix-rich (~0 h) or β-sheet-rich (~150 h)
Procedure: The binding was explored further using biolayer interferometry, which analyzes interference patterns based on adsorption of samples to a biosensor tip.
All biolayer interferometry experiments were performed on a BLItz biosensor system (ForteBio, Pall) using aminopropylsilane (APS) sensors. Sensors were hydrated in ddH2O + 22 μM ThT for 10 min prior to use; ThT was included to mirror the conditions of the corresponding aggregation curves.

[7] = tested on: S. aureus MN8 biofilm amyloid; assay: ThT fluorescence assay of amyloid in MN8 biofilms; type: cell-based, Staphylococcus aureus MN8; conditions: 24 h
Procedure: as §2, §3

S. aureus biofilm = assay: Crystal Violet staining of S. aureus biofilm (24 h batch growth); type: cell-based, Staphylococcus aureus; conditions: 24 h batch growth in microtiter plates; 0.5% w/v Crystal Violet, absorbance at 550 nm; strain not stated; peptide 80 μM unless otherwise noted
Procedure: We employed two S. aureus strains—SH1000 WT, a rsbU ^+ laboratory strain,[27] and MN8, a clinical strain isolated from the human urogenital tract[28] (Supplementary Table S2). First we confirmed that the cells formed biofilms by batch growth of the bacteria in microtiter plates through staining with Crystal Violet dye after 24 h. Application of our AP90 α-sheet design led to a 54% reduction in biofilm. As crystal violet is a crude measure of the extent of biofilm formation, we assessed amyloid fibril formation in the biofilms by adapting the conventional Thioflavin T (ThT) amyloid fibril assay for use in live cells. After 24 h of batch growth in microtiter plates, the biofilms were washed and incubated with ThT, and the resulting fluorescence signals served as a proxy for the extent of fibril formation in the EM (Fig. 1a). Next, we utilized this assay to test the α-sheet inhibitor designs and control peptides described above (sequences provided in Supplementary Table S1). […]
ThT, an established fluorescent label for amyloid fibrils,[43] was then added to each well at a concentration of 22 μM and biofilms were incubated statically for 4 h at room temperature. […] Fluorescence measurements were corrected by subtracting the background intensity of identical samples without ThT (in the case of the biofilms) or PSMα1 (for the in vitro measurements). […]

synthetic PSMα1 [8] = assay: PSMα1 fibrillization assay with added inhibitors (ThT), LB medium; type: biochemical, Staphylococcus aureus; conditions: LB medium + 0.34% DMSO, 37 °C
Description: as §1

[9] = ref [25]; cited from earlier work
Description: In addition, the structural properties of the peptide provide a benchmark, or spectroscopic signature, for α-sheet structure, which can be used to interpret spectra of amyloid species. The main α-sheet design used here is AP90 (Alternating Peptide #90, referred to as α1 previously, [26]), but we also tested several other designs (Supp ...

T1 sequence (A9JX05 whole entry, looked up): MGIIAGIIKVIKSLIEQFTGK

For `CSCC[C@H](NC(=O)[C@@H](CCCCN)NC(=O)[C@H](CC(C)C)NC(=O)[C@@H](CC(N)=O)NC(=O)[C@H](CCSC)NC(=O)[C@H](NC(=O)[C@H](Cc1c[nH]c2ccccc12)NC(=O)CNC(=O)[C@H](CO)NC(=O)[C@H](Cc1ccc(O)cc1)NC(=O)[C@H](CCC(=O)O)NC(=O)[C@H](CC(N)=O)NC(=O)[C@H](CCSC)NC(=O)[C@@H](Cc1c[nH]c2ccccc12)NC(=O)[C@H](CO)NC(=O)[C@@H](CC(C)C)NC(=O)[C@H](CC(N)=O)NC(=O)[C@@H](CCSC)NC(=O)[C@H](CCC(=O)O)NC(=O)CNC(=O)[C@H](CCCNC(=N)N)NC(C)=O)[C@H](C)O)C(=O)NCC(=O)N[C@@H](CCCNC(=N)N)C(N)=O` [AP90] (Ac-RGE[dM]N[dL]S[dW]MNEYSGW[dT]M[dN]L[dK]MGR-NH2), the “inhibition of PSMα1 amyloid formation” value (synthetic PSMα1 [1]) was 81 ± 5%, the “CD spectrum (secondary structure)” value [2] was “featureless spectrum, except for negative ellipticity in the so-called random coil region around 195–200 nm” and the “binding of PSMα1 samples to immobilized AP90” value (PSMα1 [3]) was “more of the oligomer sample bound to the column than fresh or fibrillar material”. For the same compound, the “extracellular PSM fibril deposits by TEM” value [4] was “amyloid fibrils could not be found; also recorded: no extracellular fibril deposits were observed; also recorded: no amyloid fibrils were visible”, the “effect on amyloid fibril formation (ThT), in words” value [5] was “significant reduction in amyloid fibril formation” and the “reduction of amyloid fibril formation (ThT)” value ([5]; LB Lennox, ThT 22 μM, ex 438 / em 495 nm, vs peptide-free control, experiments in triplicate) was ~ 30%. The “binding preference by KD, in words” value (PSMα1 [6]) was “preferential binding between AP90 and α-sheet-rich PSMα1 (~48 h)”, the “effect on amyloid fibril formation (ThT), in words” value ([7]; 80 μM peptide, 37 °C, effect particularly for the MN8 clinical isolate) was “significant reduction in amyloid fibril formation” and the “dose-response of biofilm amyloid content (ThT), in words” value ([7]; increasing concentrations of AP90 in culture medium) was “fibril formation decreased in a dose-dependent manner; also recorded: significant decrease in EM amyloid content as the concentration of AP90 is increased”. For the same compound, the “reduction in biofilm (Crystal Violet)” value (S. aureus biofilm) was 54%, the “inhibition of PSMα1 fibril formation” value (synthetic PSMα1 [8]; 30 μM PSMα1, 1:4 PSMα1:inhibitor, ThT 22 μM, SEM of 3–6 replicates, vs peptide-free control) was 73 ± 11% and the “effect on PSMα1 fibril formation, in words” value (synthetic PSMα1 [8]; 30 μM PSMα1, 1:4 PSMα1:peptide) was “inhibited fibril formation to nearly the same extent as in water; also recorded: inhibition by AP90 persisted”. For the same compound, the “secondary structure by CD, FTIR and 2D NMR” value [9] was “does not adopt conventional secondary structure”.
